Source: patent US20260250318A1, “COMPOSITIONS AND METHODS FOR CROSSING THE BLOOD BRAIN BARRIER” (VOYAGER THERAPEUTICS, INC., priority 2022, published 2026)

Tests used:
Details in all cases: synthetic library passage 3, intravenous, relative to wild-type AAV9
brain [1] = experiment: NGS fold enrichment of synthetic library (passage 3) in BALB/c mice, first cross-species screen; type: in vivo
Summary of the method: (§1)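 Passage-3 synthetic capsid library given intravenously […] to NHPs (2-4 years) and BALB/c or C57Bl/6 mice (n=3, 6-8 weeks). After e.g. 28 days, tissue RNA was RT-PCR amplified and NGS-sequenced; values are fold enrichment of each variant relative to wild-type AAV9.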

[2] = test system: brain, spinal cord, and DRG of the NHPs; experiment: NGS fold enrichment of synthetic library (passage 3) in NHPs, first cross-species screen; type: in vivo, cynomolgus macaques (Macaca fascicularis)
Summary of the method: as §1

brain [3] = experiment: NGS fold enrichment of synthetic library (passage 3) in C57Bl/6 mice, first cross-species screen; type: in vivo
Summary of the method: as §1

[4] = RNA from brain of BALB/c mice, NGS
[5] = RNA from spinal cord of NHPs, NGS
[6] = RNA from brain of C57Bl/6 mice, NGS

| Sequence | Fold enrichment over AAV9 in the brain of Mice (BALB/c) (brain [1]; [4]) | Fold enrichment over AAV9 in the brain of NHPs ([2]; RNA from brain of NHPs, NGS) | Fold enrichment over AAV9 in the spinal cord of NHPs [2, 5] | Fold enrichment over AAV9 in the brain of Mice (C57Bl/6) (brain [3]; [6]) | Fold enrichment over AAV9 in the brain of Mice (BALB/c) (brain [1]; RNA NGS, brain of BALB/c mice) | Fold enrichment over AAV9 in the brain of NHPs ([2]; RNA NGS, brain of NHPs) | Fold enrichment over AAV9 in the spinal cord of NHPs ([2]; RNA NGS, spinal cord of NHPs) | Fold enrichment over AAV9 in the brain of Mice (C57Bl/6) (brain [3]; RNA NGS, brain of C57Bl/6 mice) |
| --- | --- | --- | --- | --- | --- | --- | --- | --- |
| GSGQNQQTSVSQNV | 0.715 fold | 1.281 fold | 0.750 fold | 0.788 fold | – | – | – | – |
| GSGQNQQTSVSQQT | 0.913 fold | 1.342 fold | 1.614 fold | 1.030 fold | – | – | – | – |
| GSGQNQQTSVYMNT | – | – | – | – | 0.983 fold | 1.498 fold | 0.613 fold | 0.640 fold |
| GSGQNQQTTAATRM | 1.005 fold | 1.163 fold | 3.925 fold | 0.947 fold | – | – | – | – |
| GSGQNQQTTASSHT | – | – | – | – | 0.678 fold | 1.618 fold | 7.404 fold | 0.745 fold |
| GSGQNQQTTSSNMT | – | – | – | – | 0.698 fold | 1.099 fold | 0.569 fold | 0.638 fold |
| GSGQNQQTVGGKNL | 1.051 fold | 1.203 fold | 0.128 fold | 0.777 fold | – | – | – | – |
| GSGQNQQTVGNPAT | – | – | – | – | 0.395 fold | 1.008 fold | 3.014 fold | 0.856 fold |
| GSGQNQQTVMTARA | – | – | – | – | 0.843 fold | 1.117 fold | 1.535 fold | 0.995 fold |
| GSGQNQQTVPSNLV | 0.281 fold | 1.201 fold | 0.791 fold | 0.434 fold | – | – | – | – |
| GSGQNQQTVPTRQT | – | – | – | – | 0.138 fold | 1.040 fold | 1.207 fold | 0.629 fold |
| GSGQNQQTVQSNLV | – | – | – | – | 0.698 fold | 1.103 fold | 2.350 fold | 0.577 fold |
| GSGQNQQTVSRQST | – | – | – | – | 0.796 fold | 1.820 fold | 0.472 fold | 1.330 fold |
| GSGQNQQVAGLNNT | 0.492 fold | 1.386 fold | 3.218 fold | 0.449 fold | – | – | – | – |
| GSGQNQQVAIRTST | – | – | – | – | 0.370 fold | 1.035 fold | 2.447 fold | 0.963 fold |
| GSGQNQQVGGKTVT | – | – | – | – | 0.821 fold | 1.032 fold | 6.195 fold | 1.094 fold |

| Sequence | Fold enrichment over AAV9 in the brain of Mice (BALB/c) (brain [1]; [4]) | Fold enrichment over AAV9 in the brain of NHPs ([2]; RNA from brain of NHPs, NGS) | Fold enrichment over AAV9 in the spinal cord of NHPs [2, 5] | Fold enrichment over AAV9 in the brain of Mice (C57Bl/6) (brain [3]; [6]) | Fold enrichment over AAV9 in the brain of Mice (BALB/c) (brain [1]; RNA NGS, brain of BALB/c mice) | Fold enrichment over AAV9 in the brain of NHPs ([2]; RNA NGS, brain of NHPs) | Fold enrichment over AAV9 in the spinal cord of NHPs ([2]; RNA NGS, spinal cord of NHPs) | Fold enrichment over AAV9 in the brain of Mice (C57Bl/6) (brain [3]; RNA NGS, brain of C57Bl/6 mice) |
| --- | --- | --- | --- | --- | --- | --- | --- | --- |
| GSGQNQQVGSTVRT | – | – | – | – | 0.614 fold | 1.124 fold | 2.040 fold | 0.918 fold |
| GSGQNQQVHLSTGT | – | – | – | – | 0.455 fold | 1.811 fold | 0.266 fold | 1.011 fold |
| GSGQNQQVIPNSKT | – | – | – | – | 0.376 fold | 1.548 fold | 1.036 fold | 0.844 fold |
| GSGQNQQVIQGSNT | – | – | – | – | 0.810 fold | 2.521 fold | 8.778 fold | 0.935 fold |
| GSGQNQQVLTTART | – | – | – | – | 0.948 fold | 1.434 fold | 4.142 fold | 1.071 fold |
| GSGQNQQWDSRRQT | 0.825 fold | 1.321 fold | 0.531 fold | 1.059 fold | – | – | – | – |
| GSGQNQQYAGKILT | – | – | – | – | 0.431 fold | 1.112 fold | 0.300 fold | 1.078 fold |
| GSGQNQRASILVQT | 0.569 fold | 1.162 fold | 3.632 fold | 0.531 fold | – | – | – | – |
| GSGQNQRATLSNQT | 0.723 fold | 1.339 fold | 1.084 fold | 0.947 fold | – | – | – | – |
| GSGQNQRAVLNDQT | 0.259 fold | 1.242 fold | 3.023 fold | 0.556 fold | – | – | – | – |
| GSGQNQRGALATQT | – | – | – | – | 0.891 fold | 1.722 fold | 1.117 fold | 0.899 fold |
| GSGQNQRLHGVDQT | 0.341 fold | 1.318 fold | 4.655 fold | 0.459 fold | – | – | – | – |
| GSGQNQRSSGGVQT | – | – | – | – | 1.165 fold | 1.723 fold | 2.056 fold | 1.805 fold |
| GSGQNQRTMVATQT | 0.554 fold | 1.130 fold | 1.122 fold | 0.649 fold | – | – | – | – |
| GSGQNQRVSNSQQT | – | – | – | – | 0.985 fold | 2.146 fold | 0.492 fold | 1.086 fold |
